In the supplement of paper PMC10307832:

Tests used:
Test in all cases: relative viability (nuclei count vs DMSO), 5 days (fraction); higher = more cells survive
[1] = compound: CS(=O)(=O)c1ccc(-c2cnc(N)c(C(=O)Nc3ccccc3)n2)cc1 [VE-821] + COc1cccc2cc(-c3nc([C@H]4CC[C@H](C(=O)O)CC4)n4ncnc(N)c34)[nH]c12 [OSI-027] (partner 0.5 µM)
How it was run: (§1)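 Relative viability was taken as the ratio of nuclei in treated wells to nuclei in vehicle wells. Lung cancer cell lines in 1536-well plates received compounds by pin tool one day after seeding, either one drug alone or a fixed anchor-drug dose plus five library-drug doses (not always all listed) in √10 steps. Nuclei were counted on 4× images after 5 days of treatment, and values are medians of duplicate plates.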

[2] = compound: CS(=O)(=O)c1ccc(C(=O)Nc2ccc(Cl)c(-c3ccccn3)c2)c(Cl)c1 [Vismodegib] + Cc1cc(Nc2cc(N3CCN(C)CC3)nc(Sc3ccc(NC(=O)C4CC4)cc3)n2)n[nH]1 [Tozasertib] (partner 0.1 µM)
How it was run: as §1

[3] = compound: N#CC[C@H](C1CCCC1)n1cc(-c2ncnc3[nH]ccc23)cn1 [Ruxolitinib] + C[C@@H](Oc1cc(-c2cnn(C3CCNCC3)c2)cnc1N)c1c(Cl)ccc(F)c1Cl [Crizotinib] (partner 1 µM)
How it was run: as §1

[4] = compound: N#CC[C@H](C1CCCC1)n1cc(-c2ncnc3[nH]ccc23)cn1 [Ruxolitinib] + O=C(CCCCCCC(=O)Nc1ccccc1)NO [Vorinostat] (partner 1 µM)
How it was run: as §1

| Cell Line | relative viability ([1]; first compound 0.08 µM) | relative viability ([1]; first compound 0.253 µM) | relative viability ([1]; first compound 2.53 µM) | relative viability ([1]; first compound 8 µM) | relative viability ([2]; first compound 0.08 µM) | relative viability ([2]; first compound 0.253 µM) | relative viability ([2]; first compound 0.8 µM) | relative viability ([2]; first compound 2.53 µM) | relative viability ([2]; first compound 8 µM) | relative viability ([3]; first compound 0.08 µM) | relative viability ([3]; first compound 0.253 µM) | relative viability ([3]; first compound 0.8 µM) | relative viability ([3]; first compound 2.53 µM) | relative viability ([3]; first compound 8 µM) | relative viability ([4]; first compound 0.08 µM) | relative viability ([4]; first compound 0.253 µM) | relative viability ([4]; first compound 0.8 µM) | relative viability ([4]; first compound 2.53 µM) | relative viability ([4]; first compound 8 µM) | relative viability ([1]; first compound 0.8 µM) |
| --- | --- | --- | --- | --- | --- | --- | --- | --- | --- | --- | --- | --- | --- | --- | --- | --- | --- | --- | --- | --- |
| NCI-H1975 | 0.901 | 0.589 | 0.471 | 0.439 | 0.892 | 0.744 | 0.733 | 0.643 | 0.261 | 1.07 | 1.01 | 1.05 | 0.858 | 0.547 | 0.736 | 0.633 | 0.691 | 0.59 | 0.483 | – |
| SK-MES-1 | 0.665 | 0.558 | 0.533 | 0.233 | 0.881 | 0.871 | 0.974 | 0.841 | 0.827 | 1.03 | 0.984 | 1.02 | 0.925 | 0.702 | 1.19 | 1.07 | 1.01 | 0.968 | 0.949 | 0.53 |
| NCI-H2170 | 0.638 | 0.757 | 0.648 | 0.636 | 0.733 | 0.664 | 0.673 | 0.675 | 0.743 | 1.14 | 1.23 | 1.19 | 1.05 | 1.1 | 0.804 | 0.796 | 0.889 | 0.794 | 0.65 | 0.732 |
| NCI-H661 | 0.805 | 0.743 | 0.758 | 0.663 | 0.352 | 0.339 | 0.353 | 0.359 | 0.365 | 0.941 | 1.02 | 0.941 | – | 0.841 | 0.833 | 0.822 | 0.839 | 0.792 | 0.802 | 0.783 |
| HOP-62 | 1.04 | 0.809 | 0.925 | 0.697 | 0.307 | 0.327 | 0.345 | 0.343 | 0.332 | – | 1.05 | 0.707 | 1.01 | 0.749 | 0.606 | 0.59 | 0.688 | 0.594 | 0.685 | 0.73 |
| HCC-15 | 0.835 | 0.689 | 0.855 | 0.682 | 0.415 | 0.444 | 0.386 | 0.399 | 0.424 | 0.774 | 0.839 | 0.883 | 0.794 | 0.693 | 0.903 | 0.862 | 0.864 | 0.741 | 0.776 | 0.692 |
| A-427 | 0.514 | 0.418 | 0.412 | 0.286 | 0.233 | 0.193 | 0.22 | 0.196 | 0.21 | 0.843 | 1.07 | 0.867 | 0.66 | 0.789 | 0.906 | 0.879 | 0.9 | 0.974 | 0.841 | 0.391 |
